Measured values: patent US20060293307A1, “Oxazolidinone derivatives as antimicrobials” (priority 2002, published 2006)
Where two headings read alike, the source gives them in different places.

How the values were obtained:
[1] = test system: S. pneumoniae AB 30; test: MIC, agar incorporation method; assay type: cell-based, Streptococcus pneumoniae
[2] = test system: E. faecium 6A (VRE); test: MIC, agar incorporation method; assay type: cell-based, Enterococcus faecium
[3] = test system: S. pneumoniae AB 23; test: MIC, agar incorporation method; assay type: cell-based, Streptococcus pneumoniae
[4] = test system: S. pneumoniae AB 22; test: MIC, agar incorporation method; assay type: cell-based, Streptococcus pneumoniae
[5] = test system: S. epidermidis 358; test: MIC, agar incorporation method; assay type: cell-based, Staphylococcus epidermidis
[6] = test system: Salmonella 205; test: MIC, agar incorporation method; assay type: cell-based; settings: S. No. 26, Salmonella 205
Experimental: The compounds of the invention display antibacterial activity when tested by the agar incorporation method. The following minimum inhibitory concentrations (μg/ml) were obtained for representative compounds of the invention which are given below in the following tables.
Briefly, the compounds were dissolved in DMSO and doubling dilution of the compounds were incorporated into Meer Hilton agar before solidification. Inoculum was prepared by suspending 4 to 5 colonies into 5 ml of normal saline solution and adjusting the turbidity to 0.5 Macfarland turbidity standard tables (1.5×10^8 CFU/ml), after appropriate dilutions, 10^4 CFU/spot was transfered into the surface of dried plate and incubated for 18 hours (24 hours for MRSN studies). The concentration showing no growth of the inoculated culture was recorded as the MIC. Appropriate ATCC standard strains were simultaneously tested and result recorded only when the MIC's against standard antibiotics were within the acceptable range.

[7] = test system: S. pneumoniae AB-2; test: MIC, agar incorporation method; assay type: cell-based, Streptococcus pneumoniae
[8] = test system: S. pneumoniae AB-3; test: MIC, agar incorporation method; assay type: cell-based, Streptococcus pneumoniae
[9] = test system: S. epidermidis (MRSE) 23760; test: MIC, agar incorporation method; assay type: cell-based, Staphylococcus epidermidis
[10] = test system: E. faecalis SP 346 (VRE); test: MIC, agar incorporation method; assay type: cell-based
[11] = test system: S. pneumoniae 1251; test: MIC, agar incorporation method; assay type: cell-based, Streptococcus pneumoniae
[12] = test system: S. pyogenes 25147; test: MIC, agar incorporation method; assay type: cell-based, Streptococcus pyogenes
[13] = test system: K. oxytoca 49131; test: MIC, agar incorporation method; assay type: cell-based
[14] = test system: E. faecalis 21777; test: MIC, agar incorporation method; assay type: cell-based
[15] = test system: H. influenzae 49766; test: MIC against Haemophilus strains; assay type: cell-based
[16] = test system: S. epidermidis ATCC 12228; test: MIC, agar incorporation method; assay type: cell-based, Staphylococcus epidermidis
[17] = test system: S. aureus (MRSA) 15187; test: MIC, agar incorporation method; assay type: cell-based, Staphylococcus aureus
[18] = test system: H. influenzae 451; test: MIC against Haemophilus strains; assay type: cell-based
[19] = test system: S. pneumoniae 1256; test: MIC, agar incorporation method; assay type: cell-based, Streptococcus pneumoniae
[20] = test system: H. influenzae 1381; test: MIC against Haemophilus strains; assay type: cell-based
[21] = test system: S. pneumoniae ATCC 49619; test: MIC, agar incorporation method; assay type: cell-based, Streptococcus pneumoniae
[22] = test system: Moraxella M6; test: MIC, agar incorporation method; assay type: cell-based
[23] = test system: S. aureus (MRSA) ST450; test: MIC, agar incorporation method; assay type: cell-based, Staphylococcus aureus
[24] = test system: S. epidermidis 823; test: MIC, agar incorporation method; assay type: cell-based, Staphylococcus epidermidis
[25] = S. No. 11, S. epidermidis (MRSE) 23760
[26] = S. No. 20, E. faecalis SP 346 (VRE)
[27] = S. No. 10, S. epidermidis ATCC 12228
[28] = S. No. 4, S. aureus (MRSA) 15187
[29] = S. No. 48, S. pneumoniae ATCC 49619
[30] = S. No. 6, S. aureus (MRSA) ST450

Measured: MIC

O=C(NC[C@H]1CN(c2ccc(N3CCN(c4ccc([N+](=O)[O-])s4)CC3)c(F)c2)C(=O)O1)C(F)F [Compound No. 8, (S)—N-[[3-[3-Fluoro-4-[4-(5-nitro-2-thienyl)-1-piperazinyl]phenyl]-2-oxo-5-oxazolidinyl]methyl]difluoroacetamide]
0.125 µg/mL: [7]; Streptococcus pneumoniae, AB2 | [8]; Streptococcus pneumoniae, AB3 | [16]; Staphylococcus epidermidis, ATCC12228 | [19]; Streptococcus pneumoniae, 1256
0.25 µg/mL: [1]; Streptococcus pneumoniae, AB30 | [3]; Streptococcus pneumoniae, AB23 | [4]; Streptococcus pneumoniae, AB22 | [5]; Staphylococcus epidermidis, 358 | [9]; Staphylococcus epidermidis, MRSE | [10]; Enterococcus faecalis, VRE | [11]; Streptococcus pneumoniae, 1251 | [12]; Streptococcus pyogenes, 25147 | [21]; Streptococcus pneumoniae, ATCC49619 | [24]; Staphylococcus epidermidis, 823
2 µg/mL: [14]; Enterococcus faecalis, 21777 | [17]; Staphylococcus aureus, MRSA | [23]; Staphylococcus aureus, MRSA
> 8 µg/mL: [6]; read-out: MIC | [13]; Klebsiella oxytoca, 49131
> 16 µg/mL: [15]; Haemophilus influenzae, 49766 | [18]; Haemophilus influenzae, 451 | [20]; Haemophilus influenzae, 1381
1 µg/mL: [2]; Enterococcus faecium, VRE | [22]; Moraxella, M6

O=C(NC[C@H]1CN(c2ccc(N3CCN(c4ccc([N+](=O)[O-])s4)CC3)c(F)c2)C(=O)O1)C(Cl)Cl [compound 9, (S)—N-[[3-[-3-Fluoro-4-[N-1-(5-nitro-2-thienyl)-piperazinyl]phenyl] -2-oxo-5-oxazolidinyl]methyl]dichloroacetamide]
>16 µg/mL: [15]; s. No. 6, H. influenzae 49766 | [18]; s. No. 8, H. influenzae 451 | [20]; s. No. 7, H. influenzae 1381
0.5 µg/mL: [2]; S. No. 21, E. faecium 6A (VRE) | [5]; S. No. 14, S. epidermidis 358 | [9]; [25] | [10]; [26] | [12]; S. No. 52, S. pyogenes 25147 | [14]; S. No. 18, E. faecalis 21777 | [24]; S. No. 12, S. epidermidis 823
1 µg/mL: [17]; [28] | [22]; S. No. 60, Moraxella M6 | [23]; [30]
>8 µg/mL: [6] | [13]; S. No. 27, K. oxytoca 49131
0.25 µg/mL: [1]; S. No. 47, S. pneumoniae AB 30 | [3]; S. No. 43, S. pneumoniae AB 23 | [4]; S. No. 42, S. pneumoniae AB 22 | [7]; S. No. 31, S. pneumoniae AB-2 | [8]; S. No. 32, S. pneumoniae AB-3 | [11]; S. No. 54, S. pneumoniae 1251 | [16]; [27] | [19]; S. No. 56, S. pneumoniae 1256 | [21]; [29]

(S)—N-[[3-[-3-Fluoro-4-[(5-nitro-2-thienyl)-3-methyl-1-piperazinyl]phenyl]-2-oxo-5-oxazolidinyl]methyl]acetamide [Compound No. 10]
2 µg/mL: [22]; S. No. 60, Moraxella M6
>8 µg/mL: [6] | [13]; S. No. 27, K. oxytoca 49131
0.5 µg/mL: [3]; S. No. 43, S. pneumoniae AB 23 | [4]; S. No. 42, S. pneumoniae AB 22 | [5]; S. No. 14, S. epidermidis 358 | [7]; S. No. 31, S. pneumoniae AB-2 | [8]; S. No. 32, S. pneumoniae AB-3 | [9]; [25] | [11]; S. No. 54, S. pneumoniae 1251 | [12]; S. No. 52, S. pyogenes 25147 | [21]; [29] | [24]; S. No. 12, S. epidermidis 823
0.25 µg/mL: [1]; S. No. 47, S. pneumoniae AB 30 | [16]; [27] | [19]; S. No. 56, S. pneumoniae 1256
>16 µg/mL: [15]; s. No. 6, H. influenzae 49766 | [18]; s. No. 8, H. influenzae 451 | [20]; s. No. 7, H. influenzae 1381
1 µg/mL: [2]; S. No. 21, E. faecium 6A (VRE) | [10]; [26] | [14]; S. No. 18, E. faecalis 21777 | [17]; [28] | [23]; [30]
